Test system: SNU16 cells
Assay: ecDNA copy number from exome data of SNU16 cells under sequential infigratinib and erlotinib treatment
Assay type: cell-based, human
Settings: FIG. 19; for MYC and PDHX ecDNA copy numbers: 1 μM infigratinib up to 12 weeks, followed by 5 μM erlotinib up to four weeks; for EGFR ecDNA copy number: 1 μM infigratinib, followed by 5 μM erlotinib
Method: Exomes were prepared using Human Core Exome kit (Twist Bioscience) and sequenced on an Illumina platform with 2×150 paired-end read configuration.
Sequencing data was processed according to genome analysis tool kit (GATK) recommended practices (see gatk.groadinstitute.org/hc/en-us/articles/30035894731-Somatic-short-variant-discovery-SVNs-Indels-). Briefly, raw reads were aligned to the human genome (version GRCh37) using Burrows-Wheeler aligner (BWA) […] exact match (MEM). Small somatic variations were then extracted using Mutect2 (GATK v4.1.9.0) and filtered using FilterMutectCalls.
A culture of SNU16 cells was subjected to a sequence of treatments, starting with infigratinib and followed with erlotinib. Exome data was obtained from these cells at various time points during this experiment: before treatment with infigratinib, two weeks into treatment with 1 μM infigratinib, after 12 weeks of treatment with 1 μM infigratinib, before treatment with erlotinib, two weeks into treatment with 5 μM erlotinib, and four weeks into treatment with 5 μM erlotinib. VCF files produced by GATK Mutect2 were used to calculate rates of substitutions, insertions, and deletions in one million nucleotide-long genomic windows over the entire autosomal genome. Mean coverage depth was estimated by averaging depth for all mutations in that particular genomic window as reported in the VCF file.

SMILES	MYC and PDHX ecDNA copy numbers	EGFR ecDNA copy number	FGFR2 ecDNA copy number (during treatment with 1 μM infigratinib)
C#Cc1cccc(Nc2ncnc3cc(OCCOC)c(OCCOC)cc23)c1 [erlotinib]	mostly stable	went back down	
CCN1CCN(c2ccc(Nc3cc(N(C)C(=O)Nc4c(Cl)c(OC)cc(OC)c4Cl)ncn3)cc2)CC1 [infigratinib]	mostly stable	dramatically increased	moderately decreased
